Source: article PMC9105941, “A New Xanthone Glycoside from Mangifera indica L.: Physicochemical Properties and In Vitro Anti-Skin Aging Activities” (Molecules, 2022)
Values belong to the compound of their own block, whether it stands above or below them. Peptide text beside a SMILES is read from it. * marks the point of attachment. MeOSuc = COC(=O)CCC(=O)*; CH2Cl = ClC*

What was measured:
Format in all cases: biochemical
[1] = target: elastase (Sus scrofa, UniProt P00772); assay: EnzChek Elastase Assay Kit, anti-elastase activity; settings: fluorometric kit, 37 °C, 30 min kinetic
elastase, sequence (P00772 27-266): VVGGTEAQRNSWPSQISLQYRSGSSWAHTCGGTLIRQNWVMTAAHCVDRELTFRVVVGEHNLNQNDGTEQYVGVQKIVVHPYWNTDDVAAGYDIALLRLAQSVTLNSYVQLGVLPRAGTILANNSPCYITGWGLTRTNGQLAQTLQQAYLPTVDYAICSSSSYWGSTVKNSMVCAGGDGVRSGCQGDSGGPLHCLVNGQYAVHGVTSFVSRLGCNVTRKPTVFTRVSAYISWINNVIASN
Experimental: Anti-elastase activity of the compound was investigated using the EnzChek® Elastase Assay Kit (E-12056) according to the previously reported method. The tested compound and reference control were prepared in concentrations of 0.1, 1, 10, and 100 µg/mL for the analysis. The compound was prepared in 96-well plates with clear bottoms for the fluorometric assay. Briefly, elastase enzyme solutions, elastase substrate, and inhibitor control were prepared as recommended. Diluted elastase solution was then added to the wells. Tested compound, inhibitor control, and enzyme control were added to subsequent wells. The samples were mixed on a shaker and then incubated for 5 min at 37 °C. Assay buffer was mixed with the substrate to prepare the fluorometric reaction mix, which was then added and mixed thoroughly with each sample. The fluorescence was measured immediately at 400 nm excitation wavelength and 505 nm emission wavelength using a microplate reader (FilterMax F5, Thermo Fisher, Waltham, MA, USA). The measurement was made in kinetic mode at 37 °C for 30 min protected from light. All tested samples were prepared and assayed in duplicate and the elastase inhibitory effect of the tested compound was calculated applying the following equation: %Relative inhibition=ΔRFU(test inhibitor)/ΔRFU×100 where: • ΔRFU = a change in relative fluorescence units • EC = enzyme control

[2] = target: tyrosinase; assay: Tyrosinase Inhibitor Screening Colorimetric Assay Kit; settings: 25 °C, 510 nm
Experimental: The inhibitory activities of oils were tested against collagenase using the Abcam® Tyrosinase Inhibitor Screening Colorimetric Assay Kit (catalog # ab204715). The assay was carried out according to the provided manual. […] The tested compound was prepared in concentrations ranging from 0.1 to 100 µg/mL for the analysis. About 2 μL of provided tyrosinase was mixed with 48 μL of tyrosinase assay buffer. The samples of essential oils or standard (20 μL) were mixed with the enzyme mixture (50 μL) and incubated at 25 °C for 10 min. Then, 30 μL of tyrosinase substrate solution was added to the wells of essential oils and standard. Afterward, the plate was measured spectrophotometrically at a wavelength of 510 nm for 30–60 min at 25 °C.

[3] = target: collagenase; assay: fluorometric collagenase inhibitor screening kit; settings: 37 °C, 60 min kinetic
Experimental: The inhibitory ability of the isolated compound against collagenase activity was assessed using a fluorometric collagenase inhibitor screening kit (BioVision, catalog no. # K833-100) according to the previously described method. The reference control was (1,10)-phenanthroline. The tested compound and reference control were prepared in concentrations of 1, 10, 100, and 1000 ug/mL for the analysis. The tested compound was prepared in a 96-well plate with a flat bottom. First, the collagenase substrate was dissolved in collagenase assay buffer (CAB). The sample for analysis was prepared by mixing the compound with both collagenase and CAB. Preparing inhibitor control samples was performed by mixing the inhibitor ((1,10)-phenanthroline (80 mM)) with the diluted collagenase enzyme and CAB buffer. Enzyme control was prepared by mixing the diluted collagenase with CAB. The CAB buffer was used as the background control. All samples were incubated at room temperature for 15 min. […] The fluorescence was measured immediately at 490 nm excitation wavelength and 520 nm emission wavelength using a microplate reader (FilterMax F5, Thermo Fisher). […] Samples were prepared in duplicate and the collagenase inhibitory effect of the tested compound was calculated applying the following equation: % Relative inhibition=Enzyme control−sample/Enzyme control×100

anti-elastase IC50 [1]: 0.63 µg/mL
Compound: COC(=O)CCC(=O)N[C@@H](C)C(=O)N[C@@H](C)C(=O)N1CCC[C@H]1C(=O)N[C@H](C(=O)CCl)C(C)C [N-methoxysuccinyl-Ala-Ala-Pro-Val-chloromethyl ketone] (MeOSuc-AAPV-CH2Cl)

anti-tyrosinase IC50 [2]: 0.48 µg/mL
Compound: O=c1c2ccc(O)c(O)c2oc2c(C3OC(CO)C(O)C(O)C3O)c(O)cc(O)c12 [isolated compound, 1,3,5,6-tetrahydroxyxanthone-C-4-β-D-glucopyranoside]

Compound: c1cnc2c(c1)ccc1cccnc12 [phenanthroline, (1,10)-phenanthroline]
anti-collagenase IC50 [3]: 182.80 µg/mL
